Measured values from the NIST ThermoML archive (doi:10.1021/acs.jced.9b00442).
± gives the expanded uncertainty stated by the source.

Conditions: 100 kPa, Liquid; for electrical conductivity: Frequency=0.0006 MHz, Alternating current cell with electrodes; for viscosity: Concentric cylinders viscometry; for mass density: Vibrating tube method

CC[N+](C)(CCO)CCO.O=S(=O)([N-]S(=O)(=O)C(F)(F)F)C(F)(F)F
Conditions | electrical conductivity [S/m] | mass density [kg/m3] | viscosity [mPa·s]
283.15 K | 0.027 ± 0.001 | – | –
288.15 K | 0.04 ± 0.001 | 1524.5 ± 1.2 | 536.2 ± 27
289.15 K | – | 1523.6 ± 1.2 | –
290.15 K | – | 1522.7 ± 1.2 | –
291.15 K | – | 1521.7 ± 1.2 | –
292.15 K | – | 1520.8 ± 1.2 | –
293.15 K | 0.056 ± 0.001 | 1519.9 ± 1.2 | –
294.15 K | – | 1519 ± 1.2 | –
295.15 K | – | 1518 ± 1.2 | –
296.15 K | – | 1517.1 ± 1.2 | –
297.15 K | – | 1516.2 ± 1.2 | –
298.15 K | 0.076 ± 0.002 | 1515.3 ± 1.2 | 268.3 ± 12
299.16 K | – | 1514.4 ± 1.2 | –
300.16 K | – | 1513.4 ± 1.2 | –
301.15 K | – | 1512.5 ± 1.2 | –
302.15 K | – | 1511.6 ± 1.2 | –
303.15 K | 0.101 ± 0.002 | 1510.7 ± 1.2 | 197.7 ± 8.7
304.15 K | – | 1509.8 ± 1.2 | –
305.15 K | – | 1508.9 ± 1.2 | –
306.15 K | – | 1508 ± 1.2 | –
307.15 K | – | 1507.1 ± 1.2 | –
308.15 K | 0.13 ± 0.003 | 1506.2 ± 1.2 | 149 ± 6.3
309.15 K | – | 1505.3 ± 1.2 | –
310.15 K | – | 1504.4 ± 1.2 | –
311.15 K | – | 1503.5 ± 1.2 | –
312.15 K | – | 1502.6 ± 1.2 | –
313.15 K | 0.165 ± 0.003 | 1501.7 ± 1.2 | 112.6 ± 4.7
314.15 K | – | 1500.8 ± 1.2 | –
315.15 K | – | 1499.9 ± 1.2 | –
316.15 K | – | 1499 ± 1.2 | –
317.15 K | – | 1498.1 ± 1.2 | –
318.15 K | 0.206 ± 0.004 | 1497.2 ± 1.2 | 89.9 ± 3.7
319.15 K | – | 1496.3 ± 1.2 | –
320.15 K | – | 1495.4 ± 1.2 | –
321.15 K | – | 1494.6 ± 1.2 | –
322.15 K | – | 1493.7 ± 1.2 | –
323.15 K | 0.253 ± 0.005 | 1492.8 ± 1.2 | 71.7 ± 2.9
324.15 K | – | 1491.9 ± 1.2 | –
325.15 K | – | 1491 ± 1.2 | –
326.15 K | – | 1490.2 ± 1.2 | –
327.15 K | – | 1489.3 ± 1.2 | –
328.15 K | – | 1488.4 ± 1.2 | 58.1 ± 2.3
329.15 K | – | 1487.5 ± 1.2 | –
330.15 K | – | 1486.7 ± 1.2 | –
331.15 K | – | 1485.8 ± 1.2 | –
332.15 K | – | 1484.9 ± 1.2 | –
333.15 K | – | 1484.1 ± 1.2 | 47.3 ± 1.9
334.15 K | – | 1483.2 ± 1.2 | –
335.16 K | – | 1482.3 ± 1.2 | –
336.15 K | – | 1481.5 ± 1.2 | –
337.15 K | – | 1480.6 ± 1.2 | –
338.15 K | – | 1479.7 ± 1.2 | 39.7 ± 1.6
339.15 K | – | 1478.9 ± 1.2 | –
340.15 K | – | 1478 ± 1.2 | –
341.15 K | – | 1477.1 ± 1.2 | –
342.15 K | – | 1476.3 ± 1.2 | –
343.15 K | – | 1475.4 ± 1.2 | 33.4 ± 1.4
344.15 K | – | 1474.6 ± 1.2 | –
345.15 K | – | 1473.7 ± 1.2 | –
346.15 K | – | 1472.8 ± 1.2 | –
347.15 K | – | 1472 ± 1.2 | –
348.15 K | – | 1471.1 ± 1.2 | 28.4 ± 1.1
349.15 K | – | 1470.3 ± 1.2 | –
350.15 K | – | 1469.4 ± 1.2 | –
351.15 K | – | 1468.6 ± 1.2 | –
352.15 K | – | 1467.7 ± 1.2 | –
353.15 K | – | 1466.8 ± 1.2 | 24.3 ± 1
354.15 K | – | 1466 ± 1.2 | –
355.15 K | – | 1465.1 ± 1.2 | –
356.15 K | – | 1464.3 ± 1.2 | –
357.15 K | – | 1463.5 ± 1.2 | –
358.15 K | – | 1462.6 ± 1.2 | 21.1 ± 0.9
359.15 K | – | 1461.8 ± 1.2 | –
360.15 K | – | 1460.9 ± 1.2 | –
361.15 K | – | 1460.1 ± 1.2 | –
362.16 K | – | 1459.2 ± 1.2 | –
363.15 K | – | 1458.4 ± 1.2 | 18.4 ± 0.7

CC[N+](CCO)(CCO)CCO.O=S(=O)([N-]S(=O)(=O)C(F)(F)F)C(F)(F)F
Conditions | electrical conductivity [S/m] | mass density [kg/m3] | viscosity [mPa·s]
283.15 K | 0.007 ± 0.001 | – | –
288.15 K | 0.011 ± 0.001 | 1538.5 ± 1.2 | 2041.7 ± 120
289.15 K | – | 1537.6 ± 1.2 | –
290.15 K | – | 1536.7 ± 1.2 | –
291.15 K | – | 1535.9 ± 1.2 | –
292.15 K | – | 1535 ± 1.2 | –
293.15 K | 0.018 ± 0.001 | 1534.1 ± 1.2 | 1275.4 ± 72
294.15 K | – | 1533.2 ± 1.2 | –
295.15 K | – | 1532.4 ± 1.2 | –
296.15 K | – | 1531.5 ± 1.2 | –
297.15 K | – | 1530.6 ± 1.2 | –
298.15 K | 0.026 ± 0.001 | 1529.7 ± 1.2 | 840.6 ± 45
299.16 K | – | 1528.9 ± 1.2 | –
300.16 K | – | 1528 ± 1.2 | –
301.15 K | – | 1527.1 ± 1.2 | –
302.15 K | – | 1526.2 ± 1.2 | –
303.15 K | 0.037 ± 0.001 | 1525.4 ± 1.2 | 569.4 ± 29
304.15 K | – | 1524.5 ± 1.2 | –
305.15 K | – | 1523.6 ± 1.2 | –
306.15 K | – | 1522.7 ± 1.2 | –
307.15 K | – | 1521.9 ± 1.2 | –
308.15 K | 0.052 ± 0.001 | 1521 ± 1.2 | 397.8 ± 19
309.15 K | – | 1520.1 ± 1.2 | –
310.15 K | – | 1519.2 ± 1.2 | –
311.15 K | – | 1518.4 ± 1.2 | –
312.15 K | – | 1517.5 ± 1.2 | –
313.15 K | 0.07 ± 0.002 | 1516.6 ± 1.2 | 280.3 ± 13
314.15 K | – | 1515.7 ± 1.2 | –
315.15 K | – | 1514.9 ± 1.2 | –
316.15 K | – | 1514 ± 1.2 | –
317.15 K | – | 1513.1 ± 1.2 | –
318.15 K | 0.092 ± 0.002 | 1512.2 ± 1.2 | 210.5 ± 9.3
319.15 K | – | 1511.3 ± 1.2 | –
320.15 K | – | 1510.5 ± 1.2 | –
321.15 K | – | 1509.6 ± 1.2 | –
322.15 K | – | 1508.7 ± 1.2 | –
323.15 K | 0.118 ± 0.002 | 1507.8 ± 1.2 | 158.6 ± 6.8
324.15 K | – | 1507 ± 1.2 | –
325.15 K | – | 1506.1 ± 1.2 | –
326.15 K | – | 1505.2 ± 1.2 | –
327.15 K | – | 1504.4 ± 1.2 | –
328.15 K | – | 1503.5 ± 1.2 | 122 ± 5.1
329.15 K | – | 1502.6 ± 1.2 | –
330.15 K | – | 1501.8 ± 1.2 | –
331.15 K | – | 1500.9 ± 1.2 | –
332.15 K | – | 1500 ± 1.2 | –
333.15 K | – | 1499.2 ± 1.2 | 94.7 ± 3.9
334.15 K | – | 1498.3 ± 1.2 | –
335.16 K | – | 1497.4 ± 1.2 | –
336.15 K | – | 1496.6 ± 1.2 | –
337.15 K | – | 1495.7 ± 1.2 | –
338.15 K | – | 1494.9 ± 1.2 | 76.1 ± 3.1
339.15 K | – | 1494 ± 1.2 | –
340.15 K | – | 1493.2 ± 1.2 | –
341.15 K | – | 1492.3 ± 1.2 | –
342.15 K | – | 1491.4 ± 1.2 | –
343.15 K | – | 1490.6 ± 1.2 | 61.6 ± 2.5
344.15 K | – | 1489.7 ± 1.2 | –
345.15 K | – | 1488.9 ± 1.2 | –
346.15 K | – | 1488 ± 1.2 | –
347.15 K | – | 1487.2 ± 1.2 | –
348.15 K | – | 1486.3 ± 1.2 | 50.6 ± 2
349.15 K | – | 1485.5 ± 1.2 | –
350.15 K | – | 1484.6 ± 1.2 | –
351.15 K | – | 1483.8 ± 1.2 | –
352.15 K | – | 1483 ± 1.2 | –
353.15 K | – | 1482.1 ± 1.2 | 41.9 ± 1.7
354.15 K | – | 1481.3 ± 1.2 | –
355.15 K | – | 1480.4 ± 1.2 | –
356.15 K | – | 1479.6 ± 1.2 | –
357.15 K | – | 1478.7 ± 1.2 | –
358.15 K | – | 1477.9 ± 1.2 | 35.3 ± 1.4
359.15 K | – | 1477.1 ± 1.2 | –
360.15 K | – | 1476.2 ± 1.2 | –
361.15 K | – | 1475.4 ± 1.2 | –
362.16 K | – | 1474.6 ± 1.2 | –
363.15 K | – | 1473.7 ± 1.2 | 30 ± 1.2
